Measurements taken from EP0331184A2, “Peptide equivalents of non-peptides and methods of design therefor” (THE BOARD OF TRUSTEES OF THE UNIVERSITY OF ALABAMA FOR ITS …, priority 1988, dated 1989).

System: dog kidney Na⁺K⁺ATPase
Assay: ³H-ouabain radioreceptor assay
Format: binding
Settings: 10⁻⁴M concentrations
Method: The linked-enzyme, spectrophotometric assay measuring hydrolysis of ATP was performed as described in Example 1. The ³H-ouabain radioreceptor assay was performed in 0.5 ml of 50 mM Tris HCl (pH 7.4) containing 0.5 mM EDTA, 4 mM MgSO₄, 80 mM NaCl, 5mM ATP, 7.5 ug of dog kidney Na⁺K⁺ATPase (Sigma), 7.8 nCi of [21, 22-³H]-ouabain (specific activity = 15.6 Ci/mmol; Amersham), and 0.1% gelatin. Test samples were incubated for 2 hr at 37°C; ATP and ³H-ouabain were absent during the first hour but present during the second hour. The glycopeptide 1-39 used in these experiments was isolated to homogeneity as described in Fig. 6; eOLP refers to the partially purified, endogenous ouabain-like substance described in the text, and its amounts are expressed as ul of acetonitrile/TFA. Samples of these preparations, both in acetonitrile/0.1% trifluoroacetic acid, were evaporated under a stream of nitrogen gas and redissolved in 0.1% gelatin in preparation for assay. ³H-ouabain bound to Na⁺K⁺ATPase was recovered on Whatman GF/F glass microfiber filters using vacuum filtration. The filters had been soaked in 0.3% aqueous polyethylenimine for 2 hr immediately before filtration. The filters were added to scintillation fluid in vials and counted in a liquid scintillation spectrometer. […]

| Substance | displacing activity in the ³H-ouabain radioreceptor assay |
| --- | --- |
| lysine vasopressin | no displacing activity |
| oxytocin | no displacing activity |
